Test [1] has as its target T1, Fatty-acid amide hydrolase 1 (Rattus norvegicus) (UniProt P97612).
T1 sequence (whole entry): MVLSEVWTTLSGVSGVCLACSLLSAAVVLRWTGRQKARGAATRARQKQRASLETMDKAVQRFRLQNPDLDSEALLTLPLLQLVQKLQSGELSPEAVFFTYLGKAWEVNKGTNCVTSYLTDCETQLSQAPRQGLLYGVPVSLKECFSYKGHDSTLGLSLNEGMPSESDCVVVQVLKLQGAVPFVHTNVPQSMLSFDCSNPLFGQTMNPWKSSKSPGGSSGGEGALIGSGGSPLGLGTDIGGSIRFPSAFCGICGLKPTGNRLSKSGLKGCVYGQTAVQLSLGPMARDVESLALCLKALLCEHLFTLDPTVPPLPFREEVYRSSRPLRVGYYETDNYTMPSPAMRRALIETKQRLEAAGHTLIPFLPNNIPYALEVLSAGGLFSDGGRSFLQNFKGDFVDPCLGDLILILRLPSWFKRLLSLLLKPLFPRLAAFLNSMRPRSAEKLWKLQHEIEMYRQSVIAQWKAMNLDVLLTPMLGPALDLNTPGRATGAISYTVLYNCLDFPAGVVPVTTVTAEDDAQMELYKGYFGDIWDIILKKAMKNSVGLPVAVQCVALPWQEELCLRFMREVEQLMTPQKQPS
As to the kind of experiment: Inhibition of Sprague-Dawley rat brain FAAH assessed as residual activity at 10 uM after 60 mins by reverse phase HPLC-based fluorescence method.

The target in test [2] is T2, Fatty-acid amide hydrolase 1 (Rattus norvegicus, UniProt P97612).
T2 sequence (P97612 whole entry): T1 sequence (whole entry)
The test is described as follows: (§1) Inhibition of Sprague-Dawley rat brain microsome FAAH assessed as reduction in 4-pyren-1-ylbutanoic acid release after 60 mins by reverse phase HPLC-based fluorescence method.

The target in test [3] is T1, Fatty-acid amide hydrolase 1 (Rattus norvegicus). Described as §1.
Test [4] has as its target Acyl-protein thioesterase 1 (Homo sapiens) (UniProt O75608). As to the kind of experiment: Inhibition of APT1 at 50 uM.
Test [5] is described as follows: Inhibition of cPLA2alpha at 1 uM.
Test [6] addresses Acyl-protein thioesterase 2 (Homo sapiens) (UniProt O95372). The test is described as follows: Inhibition of APT2 at 50 uM.

The source made the active and inactive calls. The calls are words filed in the database; no cut-off is given here.

Chain of Acyl-protein thioesterase 1 (Homo sapiens) (O75608 whole entry): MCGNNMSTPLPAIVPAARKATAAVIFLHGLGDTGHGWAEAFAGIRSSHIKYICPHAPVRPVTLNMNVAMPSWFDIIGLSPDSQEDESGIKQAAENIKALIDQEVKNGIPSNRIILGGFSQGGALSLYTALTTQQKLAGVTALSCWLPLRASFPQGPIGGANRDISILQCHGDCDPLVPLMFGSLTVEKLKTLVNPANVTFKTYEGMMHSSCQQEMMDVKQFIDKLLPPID
Chain of Acyl-protein thioesterase 2 (Homo sapiens) (O95372 whole entry): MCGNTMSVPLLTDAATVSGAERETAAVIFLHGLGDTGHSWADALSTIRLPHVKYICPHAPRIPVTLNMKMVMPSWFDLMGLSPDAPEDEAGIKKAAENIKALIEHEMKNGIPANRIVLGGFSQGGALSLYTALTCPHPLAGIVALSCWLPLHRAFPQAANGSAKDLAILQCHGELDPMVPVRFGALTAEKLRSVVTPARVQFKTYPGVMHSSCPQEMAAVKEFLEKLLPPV

As for `CCCCCCCCCCCC(=O)c1ncc(CCS(=O)(=O)CCC[N+](C)(C)C)o1`, the Activity in test [1] stood at 11%. For the same molecule, the 50% inhibitory concentration (IC50) (usually the concentration that inhibits the measured activity by half) in test [2] was 1400 nM.
For the molecule `CCCCCCCC(=O)c1ncc(CCCCCS(=O)(=O)CCC[N+](C)(C)C)o1`, the Activity in test [1] turned out to be 70%.
In the case of `CCCCCCCCCCCC(=O)c1ncc(CCCCCCSCCC[N+](C)(C)C)o1`, the Activity in test [1] was 71%. In addition, the inhibition entry in test [3] was “inactive”.
The corresponding values for `CCCCCCCCCCCC(=O)c1ncc(CCSCCCN(C)C)o1` are 27% and “inactive”.
For the molecule `CCCCCCCC(=O)c1ncc(CCSCCCN(C)C)o1`, the Activity in test [1] amounted to 34%.
`CCCCCCCCCCCC(=O)c1ncc(CCCCSCCC[N+](C)(C)C)o1`: in test [1], the Activity was 78%. The inhibition result in test [3] was “inactive”.
On to `CCCCCCCC(=O)c1ncc(CCCCS(=O)(=O)CCC[N+](C)(C)C)o1`, for which the Activity in test [1] came to 83%.
In the case of `CCCCCCCC(=O)c1ncc(CCCCSCCC[N+](C)(C)C)o1`, the Activity in test [1] came out at 68%.
Turning to `O=C(CCCCCc1ccccc1)c1nc2ncccc2o1`, the 50% inhibitory concentration (IC50) in test [2] was 2.9 nM.
Turning to `CCCCCCCCCCCC(=O)c1ncc(CCCCCSCCCN(C)C)o1`, in test [1], the Activity stood at 64%. In test [3], the inhibition entry is “inactive”.
With `CCCCCCCC(=O)c1ncc(CCS(=O)(=O)CCCN(C)C)o1`, the Activity in test [1] came out at 23%. Moreover, in test [2], the IC50 was 2000 nM.
The corresponding values for `CCCCCCCC(=O)c1ncc(CCCS(=O)(=O)CCCN(C)C)o1` are 22% and 2400 nM.
On to `CCCCCCCCCCCC(=O)c1ncc(CCCCSCCCN(C)C)o1`, for which the Activity in test [1] turned out to be 49%. In test [3], the inhibition result was “inactive”.
`CCCCCCCC(=O)c1ncc(CCCCCSCCCN(C)C)o1`: the Activity in test [1] was 78%.
For the molecule `CCCCCCCCCCCC(=O)c1ncc(CCCCCS(=O)(=O)CCC[N+](C)(C)C)o1`, the Activity in test [1] turned out to be 57%. The inhibition result in test [3] is “inactive”.
Regarding `CCCCCCCC(=O)c1ncc(CCCCCCS(=O)(=O)CCCN(C)C)o1`, the Activity in test [1] came out at 62%.
On the same count and under the same terms, the value for `CCCCCCCC(=O)c1ncc(CCCCS(=O)(=O)CCCN(C)C)o1` was 59%.
Consider `CCCCCCCCCCCC(=O)c1ncc(CCCCCCSCCCN(C)C)o1`, for which the Activity in test [1] came to 72%. In test [3], the inhibition result is “inactive”.
For `CCCCCCCCCCCC(=O)c1ncc(CCCSCCCN(C)C)o1` the same measures were 40% and “inactive”.
Take `CCCCCCCCCCCC(=O)c1ncc(CCCCCCS(=O)(=O)CCC[N+](C)(C)C)o1`: the Activity in test [1] amounted to 31%. Besides, in test [3], the inhibition entry is “inactive”.
For `CCCCCCCCCCCC(=O)c1ncc(CCCCCCS(=O)(=O)CCCN(C)C)o1` the same measures were 51% and “inactive”.
Regarding `CCCCCCCC(=O)c1ncc(CCCSCCCN(C)C)o1`, the Activity in test [1] came to 64%.
Consider `CCCCCCCC(=O)c1ncc(CCCCCCSCCCN(C)C)o1`, for which the Activity in test [1] turned out to be 78%.
The same measure, in the same setting: with `CCCCCCCC(=O)c1ncc(CCCS(=O)(=O)CCC[N+](C)(C)C)o1` the figure was 53%.
Consider `CCCCCCCCCCCC(=O)c1ncc(CCCS(=O)(=O)CCCN(C)C)o1`, for which the Activity in test [1] was 2%. In addition, the inhibition entry in test [4], in test [5] and in test [6] was “inactive” in each case. The concentration for half-maximal inhibition (IC50) in test [2] is 290 nM.
With `CCCCCCCCCCCC(=O)c1ncc(CCS(=O)(=O)CCCN(C)C)o1`, the Activity in test [1] is 3%. In addition, in test [2], the 50% inhibitory concentration (IC50) amounted to 370 nM.
Consider `CCCCCCCC(=O)c1ncc(CCCCSCCCN(C)C)o1`, for which the Activity in test [1] was 48%.
Turning to `CCCCCCCCCCCC(=O)c1ncc(CCCCCS(=O)(=O)CCCN(C)C)o1`, in test [1], the Activity came out at 53%. Moreover, the inhibition result in test [3] was “inactive”.
For `CCCCCCCC(=O)c1ncc(CCCCCCSCCC[N+](C)(C)C)o1`, in test [1], the Activity is 82%.
On to `Cc1nc(-c2ccccc2)c(-c2ccccc2)n1CCCCCCNC(=O)Oc1ccccc1`, for which, in test [2], the IC50 came out at 340 nM.
With `CCCCCCCCCCCC(=O)c1ncc(CCSCCC[N+](C)(C)C)o1`, in test [1], the Activity turned out to be 78%. Moreover, in test [3], the inhibition result was “inactive”.
For `CCCCCCCCCCCC(=O)c1ncc(CCCCS(=O)(=O)CCCN(C)C)o1` the same measures were 32% and “inactive”.
With `CCCCCCCC(=O)c1ncc(CCS(=O)(=O)CCC[N+](C)(C)C)o1`, in test [1], the Activity amounted to 61%.
Consider `CCCCCCCCCCCC(=O)c1ncc(CCCS(=O)(=O)CCC[N+](C)(C)C)o1`, for which the Activity in test [1] was 13%. Besides, the IC50 in test [2] was determined as 1900 nM.
For `CCCCCCCC(=O)c1ncc(CCSCCC[N+](C)(C)C)o1`, the result in test [1] was inactive.
As for `CCCCCCCC(=O)c1ncc(CCCCCS(=O)(=O)CCCN(C)C)o1`, the Activity in test [1] is 73%.
As to `CCCCCCCCCCCC(=O)c1ncc(CCCCS(=O)(=O)CCC[N+](C)(C)C)o1`, the Activity in test [1] stood at 49%. Moreover, the inhibition entry in test [3] is “inactive”.

Values taken from ChEMBL document CHEMBL1932998, “Design, synthesis and evaluation of polar head group containing 2-keto-oxazole inhibitors of FAAH” (Bioorg Med Chem, 2012).
